Legend:
[1] = biological target: T1, DHX33 protein (Mus musculus, UniProt Q80VY9); assay: Inhibition of the helicase activity of DHX33 protein in vitro; assay type: biochemical; conditions: recombinant DHX33 protein, compound 1-1000 nM, 37° C., 60 minutes; read-out: IC50 (inhibitory effects of the compounds on the helicase activity of DHX33 protein)
T1 construct: purified full-length DHX33 protein; made in house; host or cells: E. coli BL-21pLysS (DE3)
T1 sequence (Q80VY9 1-698): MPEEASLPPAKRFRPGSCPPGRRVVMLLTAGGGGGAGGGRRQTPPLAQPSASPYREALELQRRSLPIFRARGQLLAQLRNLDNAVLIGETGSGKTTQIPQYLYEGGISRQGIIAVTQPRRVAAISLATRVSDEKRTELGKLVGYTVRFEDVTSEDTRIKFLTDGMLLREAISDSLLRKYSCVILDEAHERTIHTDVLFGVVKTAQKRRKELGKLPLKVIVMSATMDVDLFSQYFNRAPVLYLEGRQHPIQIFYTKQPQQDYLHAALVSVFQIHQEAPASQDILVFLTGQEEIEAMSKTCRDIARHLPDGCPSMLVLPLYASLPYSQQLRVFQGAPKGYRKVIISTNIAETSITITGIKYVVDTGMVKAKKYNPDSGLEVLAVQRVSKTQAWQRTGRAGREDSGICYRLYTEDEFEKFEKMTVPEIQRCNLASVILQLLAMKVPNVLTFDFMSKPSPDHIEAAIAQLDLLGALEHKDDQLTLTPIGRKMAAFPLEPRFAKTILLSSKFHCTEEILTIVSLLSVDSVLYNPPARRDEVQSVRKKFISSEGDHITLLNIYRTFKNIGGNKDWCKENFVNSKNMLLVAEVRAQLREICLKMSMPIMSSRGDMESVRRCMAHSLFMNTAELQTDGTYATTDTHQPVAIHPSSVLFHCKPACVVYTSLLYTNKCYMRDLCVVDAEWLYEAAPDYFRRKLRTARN
Procedure: Biochemistry. 2019:58 (4):250-8. RNA helicase gene (mouse DHX33 gene) was cloned into a pET32M-3C vector (between BamH I/Not I restriction sites). Afterward, the plasmid was transformed into BL-21pLysS (DE3) E. coli. 0.5 mM isopropyl 1-thio-βp-D-galactopyranoside (IPTG) was added, and the expression of the recombinant protein was induced at 16° C. for 16 hours. Cells were allowed to precipitate and were resuspended in a cell lysis buffer [50 mM Tris-HCl (pH7.2), 150 mM NaCl, 1% Triton X-100, and 50 mM imidazole supplemented with a protease inhibitor]. Thereafter, cells were subjected to ultrasonic treatment and centrifuged at a rotation speed of 13000 rpm for 25 minutes. The supernatant was incubated with the nickel-nitrilotriacetic acid beads equilibrated in Tris buffer, followed by sufficient washing. Thereafter, the purified protein was eluted with a solution of 300 mM imidazole in Tris buffer, and was then subjected to dialysis against an imidazole-free Tris buffer at 4° C. overnight.
The components involved in the reaction for testing the helicase activity were added to a 96-well opaque white plate. The method was outlined as follows. The 96-well plate was coated with neutravidin at a final concentration of 10 μg/mL (100 μl/well) overnight at 4° C. Afterwards, the neutravidin-coated plate was blocked with 100 μL of 0.1% (w/v) BSA (dissolved in normal PBS) at 22° C. for 2 hours. After washing, a DNA duplex (2.5 ng) that was resulted from the annealing of two single-stranded DNA oligonucleotides (the sequence of one single strand was biotin-labeled 5′-[…]-3′; and the sequence of the other single strand was DIG-labeled 5′-[…]-3′) [the annealing reaction was carried out in PBS (pH 7.0) containing 1M NaCl] was added, and the resulting mixture was incubated at 22° C. for 4 hours. After the addition of 90 μL of the reaction mixture, the helicase reaction was initiated [0.25 pig of purified full-length DHX33 protein, dissolved in 25 mM 4-MOPS (pH 7.0), 5 mM ATP 2 mM DTT, 3 mM MnCl2 and 100 μg/mL BSA]. The reaction was conducted at 37° C. for 60 minutes. After being washed, each well was incubated with a blocking solution [10% (w/v) BSA in 0.1 M maleic acid and 0.15 M NaCl (pH 7.5)] for 30 minutes, and was then incubated with 20 μL of antibody solution (anti-DIG-AP, Roche, in blocking buffer) for 30 minutes. After being washed with 100 μL of detection buffer [0.1 M Tris-HCl and 0.1 M NaCl (pH 9.5)], each well was added with 1 μL of chemiluminescent substrate (CSPD-0.25 mM), and the plate was incubated at 17° C. for 5 minutes. Afterwards, the plate was patted dry and incubated at 37° C. for 30 minutes. The remaining DIG-AP marker control in each well was counted for 10 minutes by a luminescence multi-well plate reader (Enspire, PerkinElmer). Higher reading indicated weaker helicase activity.
Positive control and negative controls were set for this acticity assay. Among them, one negative control group, which differed from the experimental group only in that the former was not added with ATP (other conditions were the same as the experimental group), was used for the comparison with the experimental group; another negative control group, which differed from the experimental group only in that the former was not added with DHX33 protein (other conditions were the same as the experimental group), was used for the comparison with the experimental group. The positive control group was set for the comparison with the wild-type DHX33 protein (standard substance).
Biochemistry. 2019:58 (4):250-8.
Compounds having a series of concentration (the concentrations were set at 1 nM, 5 nM, 10 nM, 20 nM, 50 nM, 100 nM, 250 nM, 500 nM, and 1000 nM) were used to conduct the helicase activity assay of […] protein in vitro. The half-maximal inhibitory concentrations of the compounds of the present disclosure on the helicase activity of […] protein were as shown in Table 1.

[2] = tested on: U251-MG cells; assay: Half-maximal cell-inhibitory concentration on U251-MG cells (CCK-8); assay type: cell-based; conditions: Homo sapiens, U-251, U251-MG cells (DHX33-overexpressing cancer cell strain), 48 hours, read-out: IC50 (half-maximal inhibitory concentrations of compounds on U251-MG cells)
Procedure: U251-MG cells were purchased from the cell bank of the Chinese Academy of Sciences. Cells were cultured in MEM medium containing 10% fetal bovine serum (FBS), 2 mM L-glutammie, streptomycmn and penicillin. The growth conditions were set as follows: a humidified cell incubator (37° C., 5% CO2). Cells were passaged every 3 days and were discarded after 10 passages.
U251-MG cells (a […]-overexpressing cancer cell strain) were seeded on a 96-well plate at 1×10^4 cells/100 μl/well. After the cells were completely attached, the compounds were added to the cell culture medium at a concentration of 5 nM, 10 nM, 25 nM, 50 nM, 100 nM, […], 500 nM, 1000 nM, 2000 nM, […] or 20 μM, and the resulting mixture was uniformly mixed with a multichannel pipette. After the cells were incubated with the compound for 48 hours, CCK-8 reagent (Yeasen Biotechnology (Shanghai) Co., Ltd.) was added to the medium in the 96-well plate in accordance with the standard procedure. After being incubated for 2 hours, the plate was read with a microplate reader (OD=450 nm). The experiment was repeated three times, the inhibition curve of the compound at different concentrations was plotted, and the half-maximal inhibitory concentration (IC50) of the compound was calculated.

Row | SMILES | IC50 [1] [nM] | IC50 [2] [nM]
1 | COc1ccc2nc(/C(C#N)=C/c3cc(C)n(-c4oc(C)c(C)c4C#N)c3C)[nH]c2c1 [AB24202, (E)-2-(3-(2-cyano-2-(6-methoxy-1H-benzo[d]imidazol-2-yl)vinyl)-2,5-dimethyl-1H-pyrrol-1-yl)-4,5-dimethylfuran-3-carbonitrile] | 20 to 100 | 100 to 1000
2 | Cc1oc(-n2c(C)cc(/C=C(\C#N)c3nc4ccc(F)cc4[nH]3)c2C)c(C#N)c1C [AB24205] | 100 to 400 | 1000 to 5000
3 | Cc1oc(-n2c(C)cc(/C=C(\C#N)c3nc4ccc(C(F)(F)F)cc4[nH]3)c2C)c(C#N)c1C [AB24243, (E)-2-(3-(2-cyano-2-(6-(trifluoromethyl)-1H-benzo[d]imidazol-2-yl)vinyl)-2,5-dimethyl-1H-pyrrol-1-yl)-4,5-dimethylfuran-3-carbonitrile] | 100 to 400 | 1000 to 5000
4 | Cc1oc(-n2c(C)cc(/C=C(\C#N)c3nc4ccncc4[nH]3)c2C)c(C#N)c1C [AB24249] | 100 to 400 | 5000 to 20000
5 | COc1cc2nc(/C(C#N)=C/c3cc(C)n(-c4oc(C)c(C)c4C#N)c3C)[nH]c2cn1 [AB24254, (E)-2-(3-(2-cyano-2-(6-methoxy-3H-imidazo[4,5-c]pyridin-2-yl)vinyl)-2,5-dimethyl-1H-pyrrol-1-yl)-4,5-dimethylfuran-3-carbonitrile] | < 20 | < 100
6 | Cc1cc(/C=C(\C#N)c2nc3ccccc3[nH]2)c(C)n1-c1ccncc1 [AB24259] | 100 to 400 | 1000 to 5000
7 | Cc1sc(-n2c(C)cc(/C=C(\C#N)c3nc4ccccc4[nH]3)c2C)c(C#N)c1C [AB24264, (E)-2-(3-(2-(1-(1-H-benzo[d]imidazol-2-yl]-2-cyanovinyl])-2,5-dimethyl-1H-pyrrol-1-yl)-4,5-dimethylthiophene-3-carbonitrile] | 100 to 400 | 1000 to 5000
8 | Cc1cc(C#N)c(-n2c(C)cc(/C=C(\C#N)c3nc4ccccc4[nH]3)c2C)s1 [AB24270, (E)-2-(3-(2-(1H-benzo[d]imidazol-2-yl)-2-cyanovinyl)-2,5-dimethyl-1H-pyrrol-1-yl)-5-methylthiophene-3-carbonitrile] | 20 to 100 | 100 to 1000
9 | Cc1cc(/C=C(\C#N)c2nc3ccccc3[nH]2)c(C)n1-c1oc(-c2ccccc2)cc1C#N [AB24283, (E)-2-(3-(2-(1H-benzo[d]imidazol-2-yl)-2-cyanovinyl)-2,5-dimethyl-1H-pyrrol-1-yl)-5-phenylfuran-3-carbonitrile] | 100 to 400 | 1000 to 5000
10 | COc1cc2nc(/C(C#N)=C/c3cc(C)n(-c4sc(C)cc4C#N)c3C)[nH]c2cn1 [AB24288, (E)-2-(3-(2-cyano-2-(6-methoxy-3H-imidazo[4,5-c]pyridin-2-yl)vinyl)-2,5-dimethyl-1H-pyrrol-1-yl)-5-methylthiophene-3-carbonitrile] | < 20 | < 100
11 | CCOC(=O)c1nc(C)sc1-n1c(C)cc(/C=C(\C#N)c2nc3cc(OC)ncc3[nH]2)c1C [AB24314, ethyl (E)-5-(3-(2-cyano-2-(6-methoxy-3H-imidazo[4,5-c]pyridin-2-yl)vinyl)-2,5-dimethyl-1H-pyrrol-1-yl)-2-methylthiazole-4-carboxylate] | 20 to 100 | 100 to 1000
12 | COc1ccc2nc(/C(C#N)=C/c3cc(C)n(-c4sc(C)cc4C#N)c3C)[nH]c2c1 [AB24321] | < 20 | 100 to 1000
13 | COC(=O)c1c(-n2c(C)cc(/C=C(\C#N)c3nc4ccc(OC)cc4[nH]3)c2C)sc(C)c1C [AB24322, methyl (E)-2-(3-(2-cyano-2-(6-methoxy-1H-benzo[d]imidazol-2-yl)vinyl)-2,5-dimethyl-1H-pyrrol-1-yl)-4,5-dimethylthiophene-3-carboxylate] | 100 to 400 | 1000 to 5000
14 | COC(=O)c1cc(C)c(-n2c(C)cc(/C=C(\C#N)c3nc4cc(OC)ncc4[nH]3)c2C)s1 [AB24335] | 20 to 100 | 1000 to 5000
15 | COc1ccc2c(c1)[nH]c1cc(-c3cc(C)n(-c4sc(C)cc4C#N)c3C)ccc12 [AB24350, 2-(3-(7-methoxy-9H-carbazol-2-yl)-2,5-dimethyl-1H-pyrrol-1-yl)-5-methylthiophene-3-carbonitrile] | 100 to 400 | 
16 | COc1ccc2nc(NC(=O)c3cc(C)n(-c4oc(C)c(C)c4C#N)c3C)[nH]c2c1 [AB29510, 1-(3-cyano-4,5-dimethylfuran-2-yl)-N-(6-methoxy-1H-benzo[d]imidazol-2-yl)-2,5-dimethyl-1H-pyrrole-3-carboxamide] |  | 100 to 1000
17 | COc1cc2nc(/C(C#N)=C/c3cc(C)n(Cc4ccncc4)c3C)[nH]c2cn1 [AB29512, (E)-3-(2,5-dimethyl-1-(pyridin-4-ylmethyl)-1H-pyrrol-3-yl)-2-(6-methoxy-3H-imidazo[4,5-c]pyridin-2-yl)acrylonitrile] |  | < 100
18 | COc1ccc2nc(NC(=O)c3cc(C)n(Cc4cnn(C)c4)c3C)[nH]c2c1 [AB29513, N-(6-methoxy-1H-benzo[d]imidazol-2-yl)-2,5-dimethyl-1-((1-methyl-1H-pyrazol-4-yl)methyl)-1H-pyrrole-3-carboxamide] |  | 5000 to 20000
19 | COC(=O)c1cc(Cl)sc1-n1c(C)cc(/C=C(\C#N)c2nc3cc(OC)ncc3[nH]2)c1C [AR24318] |  | 100 to 1000

— patent publication US20230146233A1, “A CLASS OF POLYCYCLIC COMPOUNDS INHIBITING RNA HELICASE DHX33 AND THE APPLICATION THEREOF” (Shenzhen KeYe Life Technologies, Co., Ltd, priority 2020, published 2023)
